US20250177564A1, “GENE THERAPY FOR THE TREATMENT OF HT1” (LogicBio Therapeutics, Inc., priority 2021, published 2025)

Assays:
Fah−/− mice [1] = assay: Compatibility between NTBC (standard of care) and GENERIDE, NTBC titration; format: in vivo, mouse; conditions: high doses of NTBC
Experimental: Four-week-old Fah−/− animals were treated with rAAV.DJ-GR-mFAH at dosages of 1e14 vg/kg via retro-orbital sinus under anesthesia. All mice were kept on 8 mg/L of NTBC prior to the initiation of the study until 4 weeks post dosing, and then NTBC were either maintained at 8 mg/L (control) or titrated down to 3 mg/L, 0.8 mg/L, or 0.3 mg/L for 8 weeks. During the study, animals were sampled periodically by submandibular bleed and plasma was collected and stored at −80° C. until further analysis. At sacrifices, blood was collected for plasma via cardiac puncture. For liver dissection, one lobe of liver was fixed by 10% formalin, and the remaining was snap-frozen and stored at −80° C. Next day, formalin-fixed liver was transferred to 70% ethanol for paraffin embedding.
Viral vectors comprising an AAV-DJ viral capsid, mouse FAH (mFAH) transgene, P2A sequence, and flanking 5′ homology arm 1000 nucleotides (nt) in length and a 3′ homology arm 1600 nt in length homology arms were constructed. Homology arms were designed for complementarity to a mouse genomic albumin target integration site. Viral vectors herein described were administered at a dosage of 1e14 vg/kg to […] groups (Groups 1, 2, 3, 4) of Fah−/− mice via intravenous injection at 4 weeks of age. […] Mice were assessed for circulating biomarkers (e.g., levels of ALB-2A) for up to 6 weeks post-NTBC titration (FIG. 4B).

Fah−/− mice [2] = assay: Disease progression and resolution with and without NTBC (NTBC cycling); format: in vivo, mouse
Experimental: Fah−/− mice were kept on 8 mg/L of NTBC-drinking water prior to the initiation of the study at 7 weeks of age. Animals were then supplied with regular water (NTBC off) for 7 days, followed by NTBC-containing water at 8 mg/L for another 7 days. The above cycling was repeated for another 14 days. During the study, animals were monitored for daily body weight. Submandibular blood and urine were sampled periodically, and serum and plasma were collected and stored at −80° C. until further analysis. At sacrifice, blood was collected for plasma via cardiac puncture. For liver dissection, one lobe of liver was fixed by 10% formalin, and the remaining was snap-frozen and stored at −80° C. The following day, the formalin-fixed liver was transferred to 70% ethanol for paraffin embedding.

HT1 patients = conditions: cited from earlier work

O=C1CCCC(=O)C1C(=O)c1ccc(C(F)(F)F)cc1[N+](=O)[O-] [NTBC, 2-(2-nitro-4-trifluoromethylbenzoyl)-1,3cyclohexanedione]
effect on selective expansion of GENERIDE edited cells (hepatocytes) (Fah−/− mice [1]): prevent selective expansion
time to restore levels of disease biomarkers (SUAC) and liver synthetic function (aPTT, ALT, blood glucose) (Fah−/− mice [2]; NTBC 8 mg/L drinking water): less than 7 days
time to abnormal levels of disease biomarkers (SUAC) and liver synthetic function upon withdrawal (Fah−/− mice [2]; NTBC withdrawal): less than 3 days
risk of developing HCC, NTBC started after the neonatal period compared to patients treated as neonates (HT1 patients): 2-12 fold
